Each structure is given as a SMILES string. “And” between values parts separate entries of the source, which are not always exact repeats. Equal entries are not always repeated. “Also recorded” adds a separate entry of the source.

By IC50 is commonly meant the concentration that inhibits the measured activity by half.

What all share (type): in vitro ADME
The target in data set [1] is T1, human OAT1 (Homo sapiens, UniProt Q4U2R8).
T1 construct: expressed in transfected cells; host or cells: CHO (protocol UPT-CHO-OAT1-Tenofovir; control: parental CHO-K1)
T1 sequence (Q4U2R8 1-563): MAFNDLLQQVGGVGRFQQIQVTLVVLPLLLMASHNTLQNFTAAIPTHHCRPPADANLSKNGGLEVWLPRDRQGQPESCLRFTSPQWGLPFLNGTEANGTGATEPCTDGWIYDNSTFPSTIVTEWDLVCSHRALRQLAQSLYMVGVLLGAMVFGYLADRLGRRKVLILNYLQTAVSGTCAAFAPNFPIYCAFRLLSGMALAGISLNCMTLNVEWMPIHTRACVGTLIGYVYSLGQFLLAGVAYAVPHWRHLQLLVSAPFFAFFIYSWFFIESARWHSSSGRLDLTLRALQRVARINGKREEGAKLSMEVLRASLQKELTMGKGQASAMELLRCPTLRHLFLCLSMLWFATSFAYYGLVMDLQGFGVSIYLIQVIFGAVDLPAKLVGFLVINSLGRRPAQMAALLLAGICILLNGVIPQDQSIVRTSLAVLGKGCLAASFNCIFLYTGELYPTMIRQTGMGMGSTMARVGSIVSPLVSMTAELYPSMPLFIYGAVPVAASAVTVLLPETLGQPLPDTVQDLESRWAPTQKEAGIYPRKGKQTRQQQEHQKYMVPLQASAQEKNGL
In words: Uptake transporter inhibition assay, OAT1. On the set-up: key to maximum inhibition: NIO: No interaction observed. The settings on record: for maximum inhibition: 0.3-300 μM. As to the method: (§1) Uptake experiments were performed using CHO, MDCKII, or HEK293 cells stably expressing the respective uptake transporters.
(§2) Cells were cultured at 37±1° C. in an atmosphere of 95:5 air:CO2 and were plated onto standard 96-well tissue culture plates at the cell number described in table 4.
(§3) Before the experiment, the medium was removed and the cells were washed twice with 100 μl of HK buffer at pH 7.4 (prepared from Sigma chemicals, Sigma-Aldrich, St Louis, Mo.). Uptake experiments were carried out at 37±1° C. in 50 μl of HK buffer (pH 7.4) containing the probe substrate and the TA or vehicle control (water).
(§4) After the experiment, cells were washed twice with ice cold, 100 μl of HK buffer and lysed with 50 μl of 0.1 M NaOH (1 mM CaCl2) in 5% SDS in the case of OATP1B3). Fluo-3 transport (OATP1B3) was determined by measuring fluorescence using 485 nm and 520 nm as the excitation and emission wavelengths, respectively. Radiolabelled probe substrate transport was determined by measuring an aliquot (35 μl) from each well for liquid scintillation counting.
Uptake of the probe substrate in control cells provided background activity values for all data points. Incubation without TA or reference inhibitor (solvent only) provided 100% activity values. A reference inhibitor served as positive control for inhibition.
The amount of translocated probe substrate was determined for each well in cpm or RFU. Relative activities were calculated from the equation:
[formula] A: amount of translocated substrate in the presence of TA in transfected cells B: amount of translocated substrate in the presence of TA in control cells C: amount of translocated substrate in the presence of solvent in transfected cells D: amount of translocated substrate in the presence of solvent in control cells Calculation of Fold Accumulation Values
(§5) In uptake transporter inhibition assays, the IC50 (μM) was calculated, where applicable. […]

Data set [2] has as its target T2, human OCT2 (Homo sapiens, UniProt O15244).
T2 construct: expressed in transfected cells; host or cells: CHO (protocol UPT-CHO-OCT2-Metf; control: parental CHO-K1)
T2 sequence (O15244 1-555): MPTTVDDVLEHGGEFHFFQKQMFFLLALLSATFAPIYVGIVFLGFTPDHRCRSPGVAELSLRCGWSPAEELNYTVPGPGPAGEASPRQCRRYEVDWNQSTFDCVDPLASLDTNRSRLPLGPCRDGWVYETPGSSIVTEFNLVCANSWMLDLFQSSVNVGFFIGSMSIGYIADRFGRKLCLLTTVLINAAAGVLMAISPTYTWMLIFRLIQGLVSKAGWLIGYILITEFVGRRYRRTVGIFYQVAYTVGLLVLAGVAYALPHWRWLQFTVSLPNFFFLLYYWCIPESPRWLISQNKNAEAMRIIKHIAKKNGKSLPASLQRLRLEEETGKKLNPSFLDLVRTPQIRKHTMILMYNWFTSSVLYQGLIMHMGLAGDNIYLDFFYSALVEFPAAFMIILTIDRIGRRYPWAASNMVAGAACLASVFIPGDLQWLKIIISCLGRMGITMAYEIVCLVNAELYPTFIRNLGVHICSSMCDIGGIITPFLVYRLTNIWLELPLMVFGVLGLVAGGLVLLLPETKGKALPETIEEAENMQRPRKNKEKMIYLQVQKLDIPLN
In words: Uptake transporter inhibition assay, OCT2. As to the method: as §1, §2, §3, §4
Uptake of the probe substrate in control cells provided background activity values for all data points. […]
The amount of translocated probe substrate was determined for each well in cpm or RFU. Relative activities were calculated from the equation: […]
as §5

The target of data set [3] is T2, human OCT2. In words: Uptake transporter substrate feasibility assay, OCT2. Details: key to Substrate: NIO: No interaction observed. As to the method: as §1
Cells were cultured at 37±1° C. in an atmosphere of 95:5 air:CO2 as described in Table 4 and were plated onto standard 24-well tissue culture plates at 2×10^5 cells/well. The uptake of the TA was determined using cells overexpressing the respective uptake transporter and control cells, at two incubation time points (2 and 20 min) and at two concentrations (1 and 10 μM) of TA to determine whether or not the TA was actively taken up into the cells.
Before the experiment, the medium was removed and the cells were washed twice with 300 μl of HK buffer (pH 7.4) (prepared from Sigma chemicals). Cellular uptake of TA into the cells was measured by adding 300 μl of HK buffer containing TA and incubating them at 37±1° C. Reactions were quenched by removing the HK buffer containing the TA and the cells were washed twice with 300 μl of HK buffer. Cells were lysed by adding 300 μl of MeOH:H2O (2:1) and incubated for 20 minutes at 4±1° C. The amount of TA in the cell lysate was determined by LC-MS/MS. The amount of protein in each well was quantified using the BCA kit for protein determination (Sigma-Aldrich, St Louis, Mo., USA). Uptake of the probe substrate in control cells provided background activity values for all data points. Incubation without reference inhibitor (solvent only) provided 100% activity values. A reference inhibitor served as positive control for inhibition.
The fold accumulation value was defined as the ratio of uptake of TA or probe substrate into transfected and control cells:
[formula] UPTTRP: accumulated amount of TA or probe substrate in transfected cells normalized by protein content [pmol/mg protein] UPTCTL: accumulated amount of TA or probe substrate in control cells normalized by protein content [pmol/mg protein]
If the fold accumulation is >2 and can be inhibited by a known inhibitor of the transporter, the TA can be considered to be a substrate of the respective transporter.

As to `[O-][n+]1cccc(C(Cl)=NOCC(O)CN2CCCCC2)c1` (stereo not drawn) [Arimoclomol, N-[2-hydroxy-3-(1-piperidinyl)-propoxy]-pyridine-1-oxide-3-carboximidoyl chloride], the maximum inhibition entry in data set [1] (Table 2) and in data set [1] (Table 5) was “NIO” throughout. In data set [1] (applied concentrations), the “Influence on OAT1-mediated probe substrate accumulation (in words)” value was “did not influence; also recorded: not an inhibitor”. The “Inhibitor of the OCT2 transporter (in words)” value in data set [2] was “inhibitor”. Besides, in data set [2] (OCT2-mediated metformin (10 μM) uptake, CHO cells), the IC50 is 10 µM and 9.72 µM. Further, the “Substrate of the transporter (in words)” value in data set [3] is “not a substrate”. Besides, the Fold accumulation in data set [3] (1 μM, 2 min) was 0.95; in data set [3] (1 μM, 20 min), 1.28; in data set [3] (10 μM, 2 min), 0.87; in data set [3] (10 μM, 20 min), 1.05; in data set [3] (1 and 10 μM, 2 and 20 min), less than 2. Besides, in data set [3] (Table 2), the Substrate result is on record as “NIO”.
